Values after ≈ are worked out from the molar mass of the structure shown. Residues, ends and D or L forms follow the SMILES beside them.
Legend:
Fusarium solani = assay: Agar (gel) assay; type: cell-based
Method: (§1) Microdilution broth and agar assays were used to assess the antifungal activity of the cyclic decapeptides in liquid media and on solid (gel) media, respectively.
(§2) The antibacterial activity of the tyrocidines and gramicidin S against all the bacteria tested was determined by the methods described by Du Toit E A and Rautenbach M (2000) J. Microbiol. Methods, 42, 159-165. The antifungal activity of the tyrocidines against all the […] tested was determined by the methods described by Troskie A M, Vlok N M and Rautenbach M (2012) J. Microbiol. Methods, 91, 551-558.

Delphinium flowers = assay: Cut flower trials, Delphinium; type: in vivo, Delphinium hybrid
Method: Trials with Delphinium flowers and 25 mg/L and 50 mg of GS or Trc mix and GS+Trc mix (50 mg/L combined concentration), were conducted.
Cut flower trials on mini hybrids of the African daisy (Gerbera hybrid) and blue larkspur (Delphinium hybrid) were conducted on 3-day old flowers. Flowers were prepared by cutting 3-5 cm of each stem and each placed separately in a measuring flask with 100 mL containing either no additive, Trc mix (35 mg/L for Gerbera and 25 mg/l for Delphinium), GS (35 mg/L for Gerbera and 25 mg/L for Delphinium), Trc mix+GS (combined 70 mg/L for Gerbera and combined 50 mg/L for Delphinium) or commercial additive for flower preservation. Flowers (6-12 per trial) were kept in a room with both natural and fluorescent lighting (16 hours light/day) at 22±1° C. The volume of water was monitored every 24 hours and noted for each flower.
Flower condition was rated from 0 to 5, with 0=dead, 1=flower petals dehydrated, closed and drooping, 2=flower still partially open but dehydrated and drooping, 3=flower starts drooping, petals soft, 4=some petals becoming soft, flower still in good condition and 5=flower is in pristine condition with taught petals and stem/leaves.

Phomopsis = assay: Hydration tank assay, spore viability; type: cell-based; settings: 10 μg/ml peptide
Method: (§3) This loss of activity in solution was, however, overcome by increasing the Trx mix concentration to 20 mg/L. It must also be emphasized that the Trc mix activity was tested at 10 times (10^7 spores/L) the spore concentration used for the testing of commercial fungicides and at 100 times the spore concentration usually observed in contaminated grapevine material (personal communication with the Department of Plant pathology, Stellenbosch University).
(§4) The activities of the GS and Trc mix were also assessed in the presence of and absence of grapevine stem material in a simulated hydration tank environment. Each 5.0 mL assay contained fungal spores at 10 000 spores/mL, peptide at 10 and 20 μg/mL and grapevine stem material. Grapevine stem material was washed with 70% ethanol and rinsed with sterile water before placement in inoculated hydration tanks, whereafter the Trc mix was added. Controls contained either the peptide or grapevine stem material. The assays were incubated at room temperature for 16 hours, whereafter three 100 μl aliquots of each assay were plated on PDA agar and allowed to grow for three days at 25° C. Some plates were stained with Coomassie brilliant blue stain (0.025% Coomassie, 12.5% isopropanol and 10% acetic acid) for better visualization of the fungal colonies. The number of colonies that developed after three days was recorded and expressed as percentage viable spores after comparing to the control samples which contained no peptide.

Phaeoacremonium = assay: Hydration tank assay, spore viability; type: cell-based
Method: as §3, §4

Cylindrocarpon = assay: Hydration tank assay, spore viability; type: cell-based
Method: as §3, §4

Botrytis cinerea = assay: Agar (gel) assay; type: cell-based; design: MIC + SEM: unit not given beside the values
Method: as §1, §2

[1] = system: Phaeoacremonium aleophilum; assay: Agar assay; type: cell-based
Method: as §1, §2

[2] = system: Penicillium digitatum (citrus isolate); assay: Agar assay; type: cell-based
Method: as §1, §2

P. digitatum = assay: Preliminary trials on oranges, wound infections; type: in vivo; settings: 50 mg/L (50 ppm)
Method: Promising results in preliminarily trials on oranges have also been observed, with 50% and 80% less wound infections by P. digitatum using 50 mg/L (50 ppm) Trc mix and GS, respectively.

[3] = system: Listeria monocytogenes B73-MR1; assay: Microdilution broth assay; type: cell-based; design: unit not given beside the values
Method: as §1, §2

Bacillus subtilis 168 = assay: Microdilution broth assay; type: cell-based; design: unit not given beside the values
Method: as §1, §2

[4] = system: Bacillus spizizenii ATCC 6633; assay: Microdilution broth assay; type: cell-based; design: unit not given beside the values
Method: as §1, §2

[5] = system: Bacillus subtilis ATCC21332; assay: Microdilution broth assay; type: cell-based; design: unit not given beside the values
Method: as §1, §2

[6] = system: Cylindrocarpon liriodendri; assay: Microdilution broth assay; type: cell-based; design: unit not given beside the values
Method: as §1, §2

[7] = system: Talaromyces mineoluteus (peach isolate); assay: Microdilution broth assay; type: cell-based; design: unit not given beside the values
Method: as §1, §2

Bacillus subtilis OKB120 = assay: Microdilution broth assay; type: cell-based; design: unit not given beside the values
Method: as §1, §2

Bacillus subtilis OKB105 = assay: Microdilution broth assay; type: cell-based; design: unit not given beside the values
Method: as §1, §2

Escherichia coli HB101 = assay: Microdilution broth assay; type: cell-based; design: unit not given beside the values
Method: as §1, §2

[8] = system: Trichoderma atroviride (wood isolate); assay: Microdilution broth assay; type: cell-based; design: unit not given beside the values
Method: as §1, §2

[9] = system: Talaromyces ramulosus (peach isolate); assay: Microdilution broth assay; type: cell-based; design: unit not given beside the values
Method: as §1, §2

[10] = system: Listeria monocytogenes B73; assay: Microdilution broth assay; type: cell-based; design: unit not given beside the values
Method: as §1, §2

[11] = system: Micrococcus luteus NCTG 8340; assay: Microdilution broth assay; type: cell-based; design: unit not given beside the values
Method: as §1, §2

## CC(C)C[C@@H]1NC(=O)[C@H](CCCN)NC(=O)[C@H](C(C)C)NC(=O)C2CCCN2C(=O)[C@@H](Cc2ccccc2)NC(=O)[C@H](CC(C)C)NC(=O)[C@H](CCCN)NC(=O)[C@H](C(C)C)NC(=O)C2CCCN2C(=O)[C@@H](Cc2ccccc2)NC1=O (some centres unmarked) [GS, Cyclo-(VOLfPVOLfP)] (HELM PEPTIDE1{L.[dF].[O=C(C1CCCN1[*:1])[*:2]].V.[Orn].L.[dF].[O=C(C1CCCN1[*:1])[*:2]].V.[Orn]}$PEPTIDE1,PEPTIDE1,1:R1-10:R2$$$V2.0)
Fusarium solani; Agar, Fusarium solani
  MIC + SEM: 5.5 ± 1.3
Fusarium solani; F. solani on PDA
  IC50 ± SEM: 4.9 ± 1.2 µg/mL (≈ 4.29 µM)
  MIC ± SEM: 6.3 ± 1.5 µg/mL (≈ 5.52 µM)
Fusarium solani; F. solani on YTSA
  IC50 ± SEM: 9.6 ± 0.5 µg/mL (≈ 8.41 µM)
  MIC ± SEM: 19.9 ± 1.2 µg/mL (≈ 17.4 µM)
Delphinium flowers; 25 mg/L
  phytotoxicity: did not show overt phytotoxicity
Delphinium flowers; 50 mg/L
  phytotoxicity: proved to be phytotoxic
Phomopsis; +gvs
  percentage viable spores compared to the growth/survival controls: 0%
Phomopsis; −gvs
  percentage viable spores compared to the growth/survival controls: 0%
Phaeoacremonium; +gvs, 10 μg/ml peptide
  percentage viable spores compared to the growth/survival controls: 0%
Phaeoacremonium; +gvs, 20 μg/ml peptide
  percentage viable spores compared to the growth/survival controls: 0%
Phaeoacremonium; −gvs, 10 μg/ml peptide
  percentage viable spores compared to the growth/survival controls: 0%
Phaeoacremonium; −gvs, 20 μg/ml peptide
  percentage viable spores compared to the growth/survival controls: 0%
Cylindrocarpon; +gvs, 10 μg/ml peptide
  percentage viable spores compared to the growth/survival controls: 0%
Cylindrocarpon; +gvs, 20 μg/ml peptide
  percentage viable spores compared to the growth/survival controls: 0%
Cylindrocarpon; −gvs, 10 μg/ml peptide
  percentage viable spores compared to the growth/survival controls: 0%
Cylindrocarpon; −gvs, 20 μg/ml peptide
  percentage viable spores compared to the growth/survival controls: 0%
Botrytis cinerea; Agar, Botrytis cinerea
  MIC + SEM: 2.5 ± 0.3
Botrytis cinerea; B. cinerea on PDA
  IC50 ± SEM: 2.0 ± 0.3 µg/mL
  MIC ± SEM: 2.8 ± 0.3 µg/mL
Botrytis cinerea; B. cinerea on YTSA
  IC50 ± SEM: 4.5 ± 1.1 µg/mL
  MIC ± SEM: 8.2 ± 1.8 µg/mL
[1]
  MIC + SEM: <10
[2]
  MIC + SEM: <20
P. digitatum
  less wound infections by P. digitatum: 80%
[3]
  MIC + SEM: 5.6 ± 0.1
Bacillus subtilis 168
  MIC + SEM: 8-14
[4]
  MIC + SEM: 2.6 ± 0.2
[5]
  MIC + SEM: 8-14
[6]
  MIC + SEM: 2.3 ± 0.1
[7]
  MIC + SEM: 4.2 ± 0.2
Bacillus subtilis OKB120
  MIC + SEM: 8-14
Bacillus subtilis OKB105
  MIC + SEM: 8-14
Escherichia coli HB101
  MIC + SEM: 44
[8]
  MIC + SEM: 4.8 ± 0.3
[9]
  MIC + SEM: 3.0 ± 0.1
[10]
  MIC + SEM: 9.9 ± 0.2
[11]
  MIC + SEM: 28 ± 0.4

Source: patent publication US20150030566A1, “ANTIMICROBIAL PEPTIDE COMPOSITIONS FOR PLANTS” (Stellenbosch University, priority 2012, published 2015)
